Experimental findings from US20230167181A1, “PHARMACEUTICAL COMPOSITIONS AND METHODS OF MANUFACTURE USING THERMALLY CONDUCTIVE EXCIPIENTS” (BOARD OF REGENTS, THE UNIVERSITY OF TEXAS SYSTEM, priority 2020, published 2023) are described below.

A short description of this data set: Hot stage polarized light microscopy (HSPLM). In kind it is physicochemical. As to conditions: heat only, 130° C. or 160° C., FIG. 3. As for the experimental part:
Hot stage polarized light microscopy (HSPLM) and polarized light microscopy (PLM) were used to determine amorphous nature and visual interactions between excipients when melting. Samples were prepared by lightly spreading physical mixtures of the two compositions onto a glass slide. An Olympus BX60 microscope (Olympus Corp., Center Valley, Pa.) with Insight QE camera (Diagnostic Instruments, Inc., Sterling Heights, Mich.) was used for visual observation. […] Images were captured using Spot Advance Software (Diagnostic Instruments, Inc.).

As for `CS(=O)(=O)c1cc(C2(NC(=O)c3cncc4c3cnn4-c3ccc(F)cc3)CC2)ccn1` [BI-667], the “dissolving of BI-667 in HPMCAS-HMP when no mixing was applied” value is given as “not dissolve”.
